The target of one experiment is T1, HCV NS5B (Hepatitis C virus genotype 1b, UniProt Q9WMX2).
T1 construct: fusion protein, of which the carboxyl terminal 21 amino acids were removed to enhance its solubility; His tag (GSHHHHHH); made in house; host or cells: E. coli
Kind of experiment: Inhibition of viral RNA-dependent RNA polymerase (RdRp), in vitro biochemical assay. Further details: species or system HCV genotype 1b virus (BB7). The settings on record: read-out: HCV pol-BB7 IC50. The method in brief: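 IC50 values are the concentrations that halve in vitro RNA synthesis by HCV NS5B polymerase. The enzyme was a C-terminally truncated (Δ21), His-tagged genotype 1b (BB7 consensus) protein purified from E. coli.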

The subject of experiment [1] is HCV replicon (BB7 sequence) in Huh-7-Clone A cells. Kind of experiment: HCV replicon assay: ELISA of NS5A protein in replicon-containing cells (Inhibition of Viral RNA Replication). In kind it is cell-based. In outline:
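EC50 taken from an 8-point serially diluted dose curve, with NS5A level as read-out: fixed cells probed with primary monoclonal and HRP-conjugated secondary, TMB developed 30 min, OD 650 nm. Compound exposure 72 h in Huh-7-Clone A replicon cells (BB7 sequence).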
Background: A replicon is a self-replicating genome or part of one, used to study replication in cells.

Where [2] appears, read: ranges of EC50 in HCV replicon assay, read-out: Replicon.
[3] abbreviates: purified His-tagged NS5B (BB7), carboxyl terminal 21 amino acids removed.
Setting [4] is: Hepatitis C virus, Huh-7-Clone A, NS5A ELISA, 72-hour incubation, ranges of EC50, read-out: Replicon.
Where [5] appears, read: HCV NS5B RdRp, BB7, activity class.
Setting [6] is: Hepatitis C virus, HCV replicon assay, ranges of EC50, read-out: Replicon.
Setting [7] is: HCV NS5B RdRp, BB7, class symbols A-D.
The mark [8] stands for this setting: Hepatitis C virus, ranges of EC50 in HCV replicon assay, read-out: Replicon.
Where [9] appears, read: HCV NS5B RdRp, BB7, reported as range class.
[10] abbreviates: Hepatitis C virus, HCV replicon, range of EC50, read-out: Replicon.
The mark [11] stands for this setting: Hepatitis C virus, read-out: Replicon (μM).
Setting [12] is: HCV NS5B polymerase, BB7 (genotype 1b), values given as range classes A-D.
Setting [13] is: Hepatitis C virus, HCV replicon assay, ranges of 50% effective concentration (EC50), read-out: Replicon.

Where two headings read alike, the source gives them in different places.

By IC50 is commonly meant the concentration at which inhibition is half-maximal. For the compound `CNC(=O)c1c(-c2ccc(F)cc2)oc2cc(C(N)=O)c(OC(C)C)cc12` [Example 146, 2-(4-Fluoro-phenyl)-5-isopropoxy-benzofuran-3,6-dicarboxylic acid 6-amide 3-methylamide], on HCV NS5B (HCV NS5B RdRp, BB7 genotype 1b), the IC50 lay within 0.5 to 5 µM. For the same compound, the EC50 in experiment [1] (setting [2]) was > 30 µM.
Turning to `CNC(=O)c1c(-c2ccc(F)cc2)oc2cc(N3CCCC3)c(OC(C)C)cc12` [Example 6, 2-(4-Fluoro-phenyl)-5-isopropoxy-6-pyrrolidin-1-yl-benzofuran-3-carboxylic acid methylamide], the IC50 at HCV NS5B (setting [3]) is ≤ 0.5 µM. Further, the EC50 in experiment [1] (setting [4]) was < 1 µM.
Consider `CNC(=O)c1c(-c2ccc(F)cc2)oc2cc(N(C)S(C)(=O)=O)c(OCc3ccc(C#N)cc3)cc12` [Example 357, 5-(4-Cyano-benzyloxy)-2-(4-fluoro-phenyl)-6-(methanesulfonyl-methyl-amino)-benzofuran-3-carboxylic acid methylamide], for which the IC50 at HCV NS5B (setting [5]) was ≤ 0.5 µM. Further, in experiment [1] (setting [6]), the EC50 was < 1 µM.
The like results for `CCNc1cc2oc(-c3ccc(F)cc3)c(C(=O)NC)c2c(Cl)c1OS(C)(=O)=O` [Example 342, Methanesulfonic acid 4-chloro-6-ethylamino-2-(4-fluoro-phenyl)-3-methylcarbamoyl-benzofuran-5-yl ester] were, in that order, ≤ 0.5 µM and < 10 µM.
For `CCc1cc2c(C(=O)NC)c(-c3ccc(F)cc3)oc2cc1C(C)(C)O` [Example 339, 5-Ethyl-2-(4-fluoro-phenyl)-6-(1-hydroxy-1-methyl-ethyl)-benzofuran-3-carboxylic acid methylamide], the IC50 on HCV NS5B (setting [5]) is ≤ 0.5 µM. In addition, the EC50 in experiment [1] (setting [6]) is < 1 µM.
As for `CNC(=O)c1c(-c2ccc(F)cc2)oc2cc(N(Cc3cscn3)S(C)(=O)=O)c(OC)cc12` [Example 291, 2-(4-Fluoro-phenyl)-6-(methanesulfonyl-thiazol-4-ylmethyl-amino)-5-methoxy-benzofuran-3-carboxylic acid methylamide], at HCV NS5B (setting [7]), the IC50 was ≤ 0.5 µM. The EC50 in experiment [1] (setting [6]) is < 1 µM.
As to `CNC(=O)c1c(-c2ccc(F)cc2)oc2cc(Nc3ccncc3)c(OC(C)C)cc12` [Example 131, 2-(4-Fluoro-phenyl)-5-isopropoxy-6-(pyridin-4-ylamino)-benzofuran-3-carboxylic acid methylamide], the IC50 at HCV NS5B (HCV NS5B RdRp, BB7 genotype 1b) lay in the range of 0.5 to 5 µM. The EC50 in experiment [1] (setting [8]) is < 30 µM.
As for `CNC(=O)c1c(-c2ccc(F)cc2)oc2cc(N(CCO)S(C)(=O)=O)c(OC)cc12` [Example 42, 2-(4-Fluoro-phenyl)-6-[(2-hydroxy-ethyl)-methanesulfonyl-amino]-5-methoxy-benzofuran-3-carboxylic acid methylamide], on HCV NS5B (setting [3]), the IC50 is ≤ 0.5 µM. Also, the EC50 in experiment [1] (setting [4]) is < 1 µM.
As to `CNC(=O)c1c(-c2ccc(F)cc2)oc2cc(C3CCCN3S(C)(=O)=O)c(OC)cc12` (centres unmarked) [Example 309, 2-(4-Fluoro-phenyl)-6-(1-methanesulfonyl-pyrrolidin-2-yl)-5-methoxy-benzofuran-3-carboxylic acid methylamide], the IC50 on HCV NS5B (setting [7]) is ≤ 0.5 µM. For the same compound, the EC50 in experiment [1] (setting [6]) is < 1 µM.
With `CNC(=O)c1c(-c2ccc(F)cc2)oc2cc(OCc3ccccc3)c(OC)cc12` [Example 181, 6-Benzyloxy-2-(4-fluoro-phenyl)-5-methoxy-benzofuran-3-carboxylic acid methylamide], at HCV NS5B (setting [9]), the IC50 was ≤ 0.5 µM. For the same compound, the EC50 in experiment [1] (setting [10]) was < 10 µM.
With `CNC(=O)c1c(-c2ccc(F)cc2)oc2cc(-c3c(C)noc3C)c(OCCCO)cc12` [Example 51, 6-(3,5-Dimethyl-isoxazol-4-yl)-2-(4-fluoro-phenyl)-5-(3-hydroxy-propoxy)-benzofuran-3-carboxylic acid methylamide], the IC50 on HCV NS5B (setting [3]) is ≤ 0.5 µM. Besides, in experiment [1] (setting [4]), the EC50 is < 1 µM.
In the case of `CNC(=O)c1c(-c2ccc(F)cc2)oc2cc(N(C)S(C)(=O)=O)c(OCc3cccc(C(=O)OC)c3)cc12` [Example 306], on HCV NS5B (setting [7]), the IC50 was ≤ 0.5 µM. In experiment [1] (setting [11]), the EC50 was < 1 µM.
Consider “2-(2,4-Difluoro-phenyl)-5-isopropoxy-benzofuran-3-carboxylic acid methylamide [Example 91]”, for which the IC50 at HCV NS5B (HCV NS5B RdRp, BB7 genotype 1b) is ≤ 0.5 µM. Also, the EC50 in experiment [1] (setting [2]) was < 30 µM.
Consider `CNC(=O)c1c(-c2ccc(F)cc2)oc2cc(N3CCN(C(N)=O)CC3)c(OC(C)C)cc12` [Example 185, [2-(4-Fluoro-phenyl)-5-isopropoxy-3-methylcarbamoyl-benzofuran-6-yl]-piperazine-1-carboxylic acid amide], for which, at HCV NS5B (setting [9]), the IC50 lay in the range of 5 to 30 µM. The EC50 in experiment [1] (HCV replicon, range of EC50, read-out: Replicon) is < 10 µM.
Turning to `CNC(=O)c1c(-c2ccc(F)cc2)oc2cc(C3CCCN3C(N)=O)c(OC)cc12` (centres unmarked) [Example 368, 2-[2-(4-Fluoro-phenyl)-5-methoxy-3-methylcarbamoyl-benzofuran-6-yl]-pyrrolidine-1-carboxylic acid amide], the IC50 on HCV NS5B (setting [5]) was ≤ 0.5 µM. Moreover, the EC50 in experiment [1] (setting [6]) is < 1 µM.
Take `CCOc1cc2c(C(=O)NC)c(-c3ccc(F)cc3)oc2cc1N(CC)CC` [Example 423, 6-Diethylamino-5-ethoxy-2-(4-fluoro-phenyl)-benzofuran-3-carboxylic acid methylamide]: on HCV NS5B (setting [12]), the half-maximal inhibitory concentration (IC50) was ≤ 0.5 µM. Also, the EC50 in experiment [1] (setting [13]) was < 1 µM.
For `CCCOc1ccc2oc(-c3ccccc3)c(C(=O)NC)c2c1` [Example 61, 2-Phenyl-5-propoxy-benzofuran-3-carboxylic acid methylamide], the IC50 on HCV NS5B (setting [3]) is 0.5 to 5 µM. Also, in experiment [1] (setting [4]), the EC50 is < 30 µM.
For `CNC(=O)c1c(-c2ccc(F)cc2)oc2ccc(OC(C)C)cc12` [Example 65, 2-(4-Fluoro-phenyl)-5-isopropoxy-benzofuran-3-carboxylic acid methylamide], the IC50 at HCV NS5B (setting [3]) lay in the range of 0.5 to 5 µM. Further, in experiment [1] (setting [4]), the EC50 is < 30 µM.
`CNC(=O)c1c(-c2ccc(F)cc2)oc2cc(N3CC(C)OC(C)C3)c(OC(C)C)cc12` (centres unmarked) [Example 138, 6-(2,6-Dimethyl-morpholin-4-yl)-2-(4-fluoro-phenyl)-5-isopropoxy-benzofuran-3-carboxylic acid methylamide]: the IC50 on HCV NS5B (HCV NS5B RdRp, BB7 genotype 1b) lay within 0.5 to 5 µM. Further, the EC50 in experiment [1] (setting [8]) is < 10 µM.
As for `CCc1cc2c(C(=O)NC)c(-c3ccc(F)cc3)oc2cc1N(CCO)S(C)(=O)=O` [Example 46, 5-Ethyl-2-(4-fluoro-phenyl)-6-[(2-hydroxy-ethyl)-methanesulfonyl-amino]-benzofuran-3-carboxylic acid methylamide], on HCV NS5B (setting [3]), the IC50 was ≤ 0.5 µM. For the same compound, the EC50 in experiment [1] (setting [4]) was < 1 µM.
Take `CCNC(=O)c1c(-c2ccccc2)oc2ccc(OC)cc12` [Example 130, 5-Methoxy-2-phenyl-benzofuran-3-carboxylic acid ethylamide]: at HCV NS5B (HCV NS5B RdRp, BB7 genotype 1b), the IC50 is 5 to 30 µM. Besides, the EC50 in experiment [1] (setting [8]) was < 10 µM.
Regarding `CCN(CC)c1cc2oc(-c3ccc(F)cc3)c(C(=O)NC)c2cc1OC(C)C` [Example 23, 6-Diethylamino-2-(4-fluoro-phenyl)-5-isopropoxy-benzofuran-3-carboxylic acid methylamide], on HCV NS5B (setting [3]), the IC50 is ≤ 0.5 µM. In experiment [1] (setting [4]), the EC50 is < 1 µM.
`CNC(=O)c1c(-c2ccc(F)cc2)oc2ccc(OCc3ccc(C(=O)O)cc3)cc12` [Example 259, 4-[2-(4-Fluoro-phenyl)-3-methylcarbamoyl-benzofuran-5-yloxymethyl]-benzoic acid]: the IC50 on HCV NS5B (setting [7]) was 0.5 to 5 µM. In addition, in experiment [1] (setting [6]), the EC50 is < 30 µM.
Take `CNC(=O)c1c(-c2ccc(F)cc2)oc2cc(S(=O)(=O)N3CCC(O)C3)c(OC(C)C)cc12` (centres unmarked) [Example 176, 2-(4-Fluoro-phenyl)-6-(3-hydroxy-pyrrolidine-1-sulfonyl)-5-isopropoxy-benzofuran-3-carboxylic acid methylamide]: the IC50 on HCV NS5B (setting [9]) was ≤ 0.5 µM. Moreover, in experiment [1] (setting [10]), the EC50 was < 1 µM.
Turning to `CNC(=O)c1c(-c2ccc(F)cc2)oc2cc(N3CCOCC3)c(OCc3ccc4c(c3)C(=O)OC(C)(C)O4)cc12` [Example 293], at HCV NS5B (setting [7]), the IC50 was in the range of 0.5 to 5 µM. The EC50 in experiment [1] (setting [11]) was < 10 µM.
Turning to `CCOCc1cc(-c2cc3oc(-c4ccc(F)cc4)c(C(=O)NC)c3cc2OC)no1` [Example 350, 6-(5-Ethoxymethyl-isoxazol-3-yl)-2-(4-fluoro-phenyl)-5-methoxy-benzofuran-3-carboxylic acid methylamide], the IC50 on HCV NS5B (setting [5]) was ≤ 0.5 µM. For the same compound, the EC50 in experiment [1] (setting [6]) is < 1 µM.
For `CNC(=O)c1c(-c2ccc(F)cc2)oc2cc(-c3c(C)noc3C)c(OCc3cc(C)on3)cc12` [Example 409, 6-(3,5-Dimethyl-isoxazol-4-yl)-2-(4-fluoro-phenyl)-5-(5-methyl-isoxazol-3-ylmethoxy)-benzofuran-3-carboxylic acid methylamide], the IC50 at HCV NS5B (setting [12]) was ≤ 0.5 µM. Besides, the EC50 in experiment [1] (setting [13]) is < 1 µM.
With `CNC(=O)c1c(-c2ccc(F)cc2)oc2cc(N(Cc3nnnn3C)S(C)(=O)=O)c(OC(C)C)cc12` [Example 269, 2-(4-Fluoro-phenyl)-5-isopropoxy-6-[methanesulfonyl-(1-methyl-1H-tetrazol-5-ylmethyl)-amino]-benzofuran-3-carboxylic acid methylamide], on HCV NS5B (setting [7]), the IC50 is ≤ 0.5 µM. The EC50 in experiment [1] (setting [6]) was < 1 µM.

Values taken from patent US7265152B2 (ViroPharma Incorporated, priority 2002, dated 2007).
